Experimental data taken from PMC5047049, “Characterization of a functional C3A liver spheroid model” (Toxicology Research, 2016).
Entries after “also recorded” stand apart in the source; their conditions may differ. Where two headings read alike, the source gives them in different places.

Assays:
[1] = system: HepG2 monolayer cultures; design: method as in PMID 9862754; conditions: cited from earlier work
[2] = system: C3A 2D monolayer; test: Toxicological analysis: Cell Titer-Glo cell viability in C3A 2D monolayer, 24 hours; assay type: cell-based
Method: C3A cells were maintained in EMEM (LGC Standards) supplemented with 10% FBS and 1% penicillin–streptomycin under standard cell culture conditions. For 2D monolayer experiments C3A cells were seeded and left to adhere for 24 hours and confirmed to be 100% confluent before analyses. Spheroids were treated at day 3 of culture with hepatotoxic compounds acetaminophen, fialuridine, diclofenac and trovafloxacin diluted in 0.5% DMSO in EMEM for 4 days with repeat dosing on day 2. Monolayer C3A cells were treated with compounds for 24 hours. Cell viability was analysed using Cell Titer-Glo assay (Promega) according to the manufacturer's instructions and plotted as a percentage of untreated control.

[3] = system: C3A spheroids; test: Toxicological analysis: Cell Titer-Glo cell viability in C3A spheroids, 4 days with repeat dosing; assay type: cell-based
Method: Spheroids were created using the liquid overlay technique as previously described.[38] Briefly, 100 μl of sterile 1.5% Agarose (high gelling temperature-Sigma Aldrich) in EMEM was added per well to flat-bottomed 96-well cell culture plates to form a low-adherence surface. Additionally Ultra Low Adherence plates (ULA-Corning) were used as a comparison. C3A cells were seeded at 500, 750, 1000, 1500, 2000 or 2500 cells per well in 100 μl media and left for 72 hours to form spheroids. Media was renewed twice weekly and spheroids were cultured for up to 32 days. Images of spheroids in culture were taken by phase-contrast microscopy through 4× objective and maximum spheroid diameter measured. Spheroids were treated at day 3 of culture with hepatotoxic compounds acetaminophen, fialuridine, diclofenac and trovafloxacin diluted in 0.5% DMSO in EMEM for 4 days with repeat dosing on day 2. Monolayer C3A cells were treated with compounds for 24 hours. Cell viability was analysed using Cell Titer-Glo assay (Promega) according to the manufacturer's instructions and plotted as a percentage of untreated control.

[4] = system: MRP2 and Pgp transporters; test: Analysis of transporter function with CMFDA substrate in 2D monolayer C3A cells; assay type: cell-based; conditions: 5 μM CMFDA, 30 min
Method: (§1) Spheroids and monolayers were incubated with 5 μM 5-chloromethylfluorescein diacetate (CMFDA-Life Technologies) with or without 25 μM MK571 (MRP inhibitor) and 12.5 μM PSC833 (Pgp inhibitor) in EMEM for 30 min at 37 °C. CMFDA is membrane permeable until it enters cell and is converted to glutathione-methylfluorescein (GSMF), a cell impermeable substrate for MRP and Pgp.[40] Cells and spheroids were washed in PBS and prepared for immunofluorescence as described above.

[5] = system: MRP2 and Pgp transporters; test: Analysis of transporter function with CMFDA substrate in C3A spheroids; assay type: cell-based; conditions: 30 min
Method: as §1

[6] = Homo sapiens, spheroids from 1000 C3A cells, treated at day 3 for 4 days with repeat dosing on day 2, read-out: IC50 value in C3A spheroids
[7] = Homo sapiens, monolayer C3A cells treated for 24 hours, read-out: IC50 value in C3A 2D monolayer (converted)

In the case of `O=C(O)Cc1ccccc1Nc1c(Cl)cccc1Cl` [Diclofenac], the IC50 [1] is listed as about 763 µM, the “IC50 value in C3A 2D monolayer” value ([2]; monolayer C3A cells treated for 24 hours) is listed as “Non toxic” and the “IC50 value in C3A 2D monolayer” value ([2]; monolayer C3A cells treated for 24 hours, listed as diclofenac) is listed as “did not have a toxic response at the concentrations used”. It also gave an IC50 [3, 6] of 295 µM.

For `O=c1[nH]c(=O)n([C@@H]2O[C@H](CO)[C@@H](O)[C@@H]2F)cc1I` [Fialuridine], the IC50 [2, 7] was 380 µM and the IC50 [3, 6] was 206 µM.

In the case of `CC(=O)Nc1ccc(O)cc1` [Paracetamol], the IC50 ([2]; C3A monolayer, 24 hours, read-out: IC50 in monolayer culture) is reported as 33800 µM, the IC50 [2, 7] is reported as 33800 µM and the IC50 ([3]; 96 h, C3A spheroids, 4 days repeat dosing, read-out: IC50 in spheroids) is reported as 7200 µM. For the same compound, the IC50 [3, 6] was 7210 µM.

With `CC(=O)Oc1ccc2c(c1)Oc1cc(OC(C)=O)ccc1C21OC(=O)c2cc(CCl)ccc21` [CMFDA, 5-chloromethylfluorescein diacetate] the “CMFDA localisation in 2D monolayer” value [4] was “retained CMFDA (green) within the cell cytoplasm”, the “CMFDA localisation in spheroids” value ([5]; 5 μM CMFDA, C3A spheroids) was “accumulation and co-localisation of the compound within secondary canalicular-like structures; also recorded: accumulation of CMFDA in the bile canalicular structures” and the “CMFDA localisation in spheroids with MRP and Pgp transporters blocked” value ([5]; with 25 μM MK571 (MRP inhibitor) and 12.5 μM PSC833 (Pgp inhibitor)) was “retained in the cell cytoplasm”.

In the case of `N[C@@H]1[C@H]2CN(c3nc4c(cc3F)c(=O)c(C(=O)O)cn4-c3ccc(F)cc3F)C[C@@H]12` [Trovafloxacin], the IC50 [2, 7] is reported as 440 µM and the IC50 [3, 6] is reported as 65 µM.
